Read-outs that look alike come from different tables or passages of the source.
Experiments:
5-HT1D = 5-HT1D (Homo sapiens, UniProt P28221); test: 5-HT receptor activity (Table 3), 5-HT1D; type: cell-based
5-HT1E = 5-HT1E (Homo sapiens, UniProt P28566); test: 5-HT receptor activity (Table 3), 5-HT1E; type: cell-based
mice = test: Head Twitch Response (HTR) in mice; type: in vivo; conditions: Mus musculus, 1 h, measured over a 60 minute interval
Procedure: Head Twitch Response (HTR) was assessed using a head-mounted neodymium magnet and a magnetometer detection coil, as described in Halberstadt et al., Psychopharmacology (Berl.), 2013, 227 (4): 727-739. Table 8 below summarizes the ED50 in head twitch (as measured over a 60 minute interval) in mice as a result of Compound 1 as compared to psilocybin.

5-HT2A [1] = target: T1, 5-HT2A (Homo sapiens, UniProt P28223); test: 5-HT2A Gq dissociation BRET functional assay; type: cell-based; design: expressed in transfected cells; host or cells: HEK293T
5-HT2C = target: T2, 5-HT2C (Homo sapiens, UniProt P28335); test: cell-based; conditions: Table 3
T2 sequence (P28335 33-458): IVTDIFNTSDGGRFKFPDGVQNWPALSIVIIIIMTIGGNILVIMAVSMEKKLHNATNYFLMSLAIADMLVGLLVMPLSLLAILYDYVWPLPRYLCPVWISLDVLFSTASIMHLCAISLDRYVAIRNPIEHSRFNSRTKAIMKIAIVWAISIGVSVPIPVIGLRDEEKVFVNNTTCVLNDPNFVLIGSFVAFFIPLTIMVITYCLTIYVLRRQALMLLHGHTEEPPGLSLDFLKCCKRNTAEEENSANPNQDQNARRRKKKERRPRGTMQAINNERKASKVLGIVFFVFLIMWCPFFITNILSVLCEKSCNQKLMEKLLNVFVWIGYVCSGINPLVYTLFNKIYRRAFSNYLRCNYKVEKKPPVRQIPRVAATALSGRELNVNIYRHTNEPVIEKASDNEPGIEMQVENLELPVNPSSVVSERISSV

hepatocyte [2] = test: In vitro hepatocyte clearance, dog; type: in vitro ADME; conditions: Dog
Procedure: (§1) Additional experimentation was performed on compounds 1, W5, and A93. Table 6a, 6b and 6c summarize, among other things, the anticipated hepatic clearance of compounds 1, W5 and A93 respectively, in various species, as specified in Table 6a, 6b and 6c and as determined by calculating the in vitro hepatocyte clearance over time and scaling such rate with such species' hepatocyte count and the anticipated liver blood flow rate in such species.

[3] = In vitro hepatocyte clearance, dog; type: in vitro ADME
Procedure: as §1

5-HT4 = 5-HT4 (Homo sapiens, UniProt Q13639); test: 5-HT receptor activity (Table 3), 5-HT4; type: cell-based
5-HT1A = target: T3, 5-HT1A (Homo sapiens, UniProt P08908); test: 5-HT receptor activity (Table 3), 5-HT1A; type: cell-based
T3 sequence (P08908 1-422): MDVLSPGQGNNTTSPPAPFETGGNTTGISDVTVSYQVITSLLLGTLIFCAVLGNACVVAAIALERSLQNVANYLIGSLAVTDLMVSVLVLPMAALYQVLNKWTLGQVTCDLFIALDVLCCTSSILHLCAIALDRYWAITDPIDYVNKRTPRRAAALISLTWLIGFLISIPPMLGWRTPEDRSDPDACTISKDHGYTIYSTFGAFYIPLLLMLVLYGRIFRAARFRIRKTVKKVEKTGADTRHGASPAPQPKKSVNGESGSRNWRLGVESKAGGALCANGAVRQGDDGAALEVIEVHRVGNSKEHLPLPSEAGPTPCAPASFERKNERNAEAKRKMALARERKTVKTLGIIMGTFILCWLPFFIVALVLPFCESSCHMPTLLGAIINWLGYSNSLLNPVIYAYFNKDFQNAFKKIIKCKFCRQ

5-HT7 = 5-HT7 (Homo sapiens, UniProt P34969); test: 5-HT receptor activity (Table 3), 5-HT7; type: cell-based
5-HT2A [4] = target: T1, 5-HT2A; test: 5-HT receptor activity (Table 3), 5-HT2A; type: cell-based
hepatocyte [5] = test: In vitro hepatocyte clearance, mouse; type: in vitro ADME; conditions: Mouse
Procedure: as §1

[6] = In vitro hepatocyte clearance, mouse; type: in vitro ADME; conditions: Mouse hepatocytes
Procedure: as §1

hepatocyte [7] = test: In vitro hepatocyte clearance, monkey; type: in vitro ADME; conditions: Monkey
Procedure: as §1

[8] = In vitro hepatocyte clearance, monkey; type: in vitro ADME; conditions: Monkey hepatocytes
Procedure: as §1

T1 sequence (P28223 whole entry): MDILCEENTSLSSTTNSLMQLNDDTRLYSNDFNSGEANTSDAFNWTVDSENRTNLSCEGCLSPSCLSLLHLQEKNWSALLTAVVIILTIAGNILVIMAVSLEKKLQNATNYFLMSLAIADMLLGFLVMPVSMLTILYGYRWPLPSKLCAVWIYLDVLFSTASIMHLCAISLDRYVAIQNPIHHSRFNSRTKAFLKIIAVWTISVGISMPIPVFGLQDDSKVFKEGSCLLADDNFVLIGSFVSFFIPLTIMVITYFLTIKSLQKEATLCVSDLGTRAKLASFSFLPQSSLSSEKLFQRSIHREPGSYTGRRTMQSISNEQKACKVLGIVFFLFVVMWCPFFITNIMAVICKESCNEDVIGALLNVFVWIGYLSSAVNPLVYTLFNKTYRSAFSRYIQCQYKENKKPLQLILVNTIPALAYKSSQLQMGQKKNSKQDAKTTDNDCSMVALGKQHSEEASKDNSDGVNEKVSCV
5-HT1E, sequence (P28566 whole entry, species assumed): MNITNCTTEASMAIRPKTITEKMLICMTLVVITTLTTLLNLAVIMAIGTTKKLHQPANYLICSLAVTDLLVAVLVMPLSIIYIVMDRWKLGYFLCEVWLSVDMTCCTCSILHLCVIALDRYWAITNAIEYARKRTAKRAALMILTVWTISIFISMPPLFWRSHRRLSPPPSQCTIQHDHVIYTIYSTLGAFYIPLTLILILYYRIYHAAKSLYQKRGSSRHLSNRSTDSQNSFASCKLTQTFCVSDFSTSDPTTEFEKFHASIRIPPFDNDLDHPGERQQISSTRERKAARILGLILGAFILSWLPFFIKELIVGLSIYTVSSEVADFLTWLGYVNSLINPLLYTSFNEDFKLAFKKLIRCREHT
5-HT1D, sequence (P28221 whole entry, species assumed): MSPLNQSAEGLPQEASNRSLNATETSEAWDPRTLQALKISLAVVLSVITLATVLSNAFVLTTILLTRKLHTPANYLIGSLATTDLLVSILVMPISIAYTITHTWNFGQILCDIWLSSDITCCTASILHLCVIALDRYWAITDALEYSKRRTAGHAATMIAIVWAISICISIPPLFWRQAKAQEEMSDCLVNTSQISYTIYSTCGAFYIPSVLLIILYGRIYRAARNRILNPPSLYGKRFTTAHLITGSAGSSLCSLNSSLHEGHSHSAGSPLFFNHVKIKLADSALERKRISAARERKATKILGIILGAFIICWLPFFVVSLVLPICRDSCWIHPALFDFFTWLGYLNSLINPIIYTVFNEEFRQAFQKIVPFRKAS
5-HT4, sequence (Q13639 whole entry, species assumed): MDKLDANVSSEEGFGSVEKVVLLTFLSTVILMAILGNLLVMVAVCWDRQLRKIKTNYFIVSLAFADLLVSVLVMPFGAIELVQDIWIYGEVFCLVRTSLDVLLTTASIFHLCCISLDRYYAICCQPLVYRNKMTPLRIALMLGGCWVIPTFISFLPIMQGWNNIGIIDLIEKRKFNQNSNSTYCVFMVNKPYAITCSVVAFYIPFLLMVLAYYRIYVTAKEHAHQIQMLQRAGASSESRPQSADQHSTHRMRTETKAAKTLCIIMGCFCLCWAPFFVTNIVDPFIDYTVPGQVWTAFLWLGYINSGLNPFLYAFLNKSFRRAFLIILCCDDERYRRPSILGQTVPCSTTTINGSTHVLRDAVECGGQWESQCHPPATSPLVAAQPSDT
5-HT7, sequence (P34969 whole entry, species assumed): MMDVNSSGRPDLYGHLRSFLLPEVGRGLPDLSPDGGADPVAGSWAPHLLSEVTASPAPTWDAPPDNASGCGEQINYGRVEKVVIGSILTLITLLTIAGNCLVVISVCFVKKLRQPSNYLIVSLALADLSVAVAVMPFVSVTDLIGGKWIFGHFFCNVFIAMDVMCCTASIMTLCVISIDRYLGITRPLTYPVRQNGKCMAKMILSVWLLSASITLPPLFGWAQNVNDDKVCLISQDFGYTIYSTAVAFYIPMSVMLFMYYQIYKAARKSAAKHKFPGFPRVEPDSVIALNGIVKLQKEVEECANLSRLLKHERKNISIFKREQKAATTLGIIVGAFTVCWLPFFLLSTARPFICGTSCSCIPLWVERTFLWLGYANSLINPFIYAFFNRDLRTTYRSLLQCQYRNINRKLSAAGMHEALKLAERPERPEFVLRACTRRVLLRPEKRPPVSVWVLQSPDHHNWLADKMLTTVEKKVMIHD

In the case of Cc1ccc(O)c2c3c([nH]c12)CCNCC3 [Cpd #1 (Pharm-136), 7-Methyl-1,2,3,4,5,6-hexahydroazepino[4,5-b]indol-10-ol], the “Count (n. of wells)” value (TA98; TA98 + S9, 1.0E−04M) is reported as 0 n. of wells, the Significance (TA98; TA98 + S9, 1.0E−04M) is reported as “Negative” and the “Count (n. of wells)” value (TA98; TA98 + S9, 1.0E−05M) is reported as 3 n. of wells. The Significance (TA98; TA98 + S9, 1.0E−05M) was “Negative”, the “Count (n. of wells)” value (TA98; TA98 + S9, 5.0E−05M) was 0 n. of wells and the Significance (TA98; TA98 + S9, 5.0E−05M) was “Negative”. For the same compound, the “Count (n. of wells)” value (TA98; TA98 + S9, 5.0E−06M) was 9 n. of wells, the Significance (TA98; TA98 + S9, 5.0E−06M) was “Weak positive” and the “Count (n. of wells)” value (TA98; TA98 − S9, 1.0E−04M) was 0 n. of wells. The Significance (TA98; TA98 − S9, 1.0E−04M) was “Negative”, the “Count (n. of wells)” value (TA98; TA98 − S9, 1.0E−05M) was 0 n. of wells and the Significance (TA98; TA98 − S9, 1.0E−05M) was “Negative”. The “Count (n. of wells)” value (TA98; TA98 − S9, 5.0E−05M) was 0 n. of wells, the Significance (TA98; TA98 − S9, 5.0E−05M) was “Negative” and the “Count (n. of wells)” value (TA98; TA98 − S9, 5.0E−06M) was 1 n. of wells. The Significance (TA98; TA98 − S9, 5.0E−06M) was “Negative”, the EC50 (5-HT1D) was 326 nM and the Eff (5-HT1D) was 72%. For the same compound, the EC50 (5-HT1E) was 966 nM, the Eff (5-HT1E) was 94% and the ED50 (mice) was 3.6 mg/kg. The EC50 (5-HT2A [1]) was 0.6 nM, the “5-HT2A BRET Eff” value (5-HT2A [1]; normalized to % 5-HT stimulation) was 102% and the EC50 (5-HT2C) was 0.5 nM. For the same compound, the Eff (5-HT2C) was 95%, the “Hepatic Extraction Ratio (E)” value (hepatocyte [2]) was less than 0.38 and the “Predicted hepatic CL” value (hepatocyte [2]) was less than 11.62 mL/min/kg. It also gave a hepatocyte CLint ([3]; Dog hepatocytes) of less than 2.71 µL/min/1e6 cells, a half-life ([3]; Dog hepatocytes, read-out: In vitro T1/2) greater than 8.53 h and a CLint scaled ([3]; dog, hepatocytes, read-out: Scale-up Clint) of less than 18.6 mL/min/kg. The EC50 (5-HT4) was “Not active”, the EC50 (5-HT1A) was 4000 nM and the Eff (5-HT1A) was 73%. For the same compound, the “Count (n. of wells)” value (TA1537; TA1537 + S9, 1.0E−04M) was 0 n. of wells, the Significance (TA1537; TA1537 + S9, 1.0E−04M) was “Negative” and the “Count (n. of wells)” value (TA1537; TA1537 + S9, 1.0E−05M) was 1 n. of wells. The Significance (TA1537; TA1537 + S9, 1.0E−05M) was “Negative”, the “Count (n. of wells)” value (TA1537; TA1537 + S9, 5.0E−05M) was 0 n. of wells and the Significance (TA1537; TA1537 + S9, 5.0E−05M) was “Negative”. The “Count (n. of wells)” value (TA1537; TA1537 + S9, 5.0E−06M) was 2 n. of wells, the Significance (TA1537; TA1537 + S9, 5.0E−06M) was “Negative” and the “Count (n. of wells)” value (TA1537; TA1537 − S9, 1.0E−04M) was 0 n. of wells. For the same compound, the Significance (TA1537; TA1537 − S9, 1.0E−04M) was “Negative”, the “Count (n. of wells)” value (TA1537; TA1537 − S9, 1.0E−05M) was 1 n. of wells and the Significance (TA1537; TA1537 − S9, 1.0E−05M) was “Negative”. The “Count (n. of wells)” value (TA1537; TA1537 − S9, 5.0E−05M) was 0 n. of wells, the Significance (TA1537; TA1537 − S9, 5.0E−05M) was “Negative” and the “Count (n. of wells)” value (TA1537; TA1537 − S9, 5.0E−06M) was 0 n. of wells. The Significance (TA1537; TA1537 − S9, 5.0E−06M) was “Negative”, the EC50 (5-HT7) was “Not active” and the EC50 (5-HT2A [4]) was 0.5 nM. For the same compound, the Eff (5-HT2A [4]; 5-HT2A, Table 3) was 101%, the “Hepatic Extraction Ratio (E)” value (hepatocyte [5]) was 0.81 and the “Predicted hepatic CL” value (hepatocyte [5]) was 73.10 mL/min/kg. It also gave a hepatocyte CLint [6] of 33 µL/min/1e6 cells, a half-life ([6]; read-out: In vitro T1/2) of 0.703 h and a CLint scaled ([6]; read-out: Scale-up Clint) of 389 mL/min/kg. The “Hepatic Extraction Ratio (E)” value (hepatocyte [7]) was less than 0.18, the “Predicted hepatic CL” value (hepatocyte [7]) was less than 7.97 mL/min/kg and the hepatocyte CLint [8] was less than 2.71 µL/min/1e6 cells. For the same compound, the half-life ([8]; read-out: In vitro T1/2) was greater than 8.53 h and the CLint scaled ([8]; read-out: Scale-up Clint) was less than 9.75 mL/min/kg.

From patent US20250296934A1, “AZEPINOINDOLES AND METHODS OF PREPARATION THEREOF” (priority 2022, published 2025)
